For this assay, the system named is Neisseria gonorrhoeae, GC525 (NG-2888). In words: in-vitro antibacterial activity, microbroth dilution MIC susceptibility testing. Type of assay: cell-based. Also on record: unit: ug/mL. To be noted: microbroth dilution in gonococcal broth, 20-24 hours at 35 C, lowest concentration preventing visible growth. The method, then:
The in-vitro antibacterial activity of selected compounds was determined against a stain of Neisseria gonorrhoeae, GC525 (NG-2888), which is described by Rouquette-Loughlin et al, in Journal of Bacteriology, February 2003, p. 1101-1106, at p. 1103. In general, minimum inhibitory concentration (MIC) susceptibility testing followed procedures recommended by the National Committee for Clinical Laboratory Standards (NCCLS^1-2) or followed the descriptions described below:
Neisseria gonorrhoeae strains were grown on Chocolate Agar II plates (BBL—Becton Dickinson Microbiology Systems, Cockeysville, Md.) and incubated at 35° C. in a humidified 5% CO2 incubator (Form a Scientific, Marietta Ohio). For microbroth dilution MIC testing, N. gonorrhoeae were tested in gonococcal broth (GCB):
Gram stains were also utilized. Permanent Stock Culture Collection
Bacterial stock cultures are stored as frozen suspensions at −70 C. N. gonorrhoeae cultures are suspended in inactivated Horse Serum (Colorado Serum Company, Denver, Colo.) containing 7.5% glucose prior to snap freezing in a dry ice/ethanol bath.
Preparation of Standardized Test Inocula and Plate Inoculation
Frozen stock cultures were used as the initial source of organisms for performing microbroth dilution MIC testing. Stock cultures were passed on their respective growth medium at least one growth cycle (18-24 hours) prior to their use. Bacterial culture suspensions were prepared directly from Chocolate Agar II plates into 10 mL cation-adjusted Mueller-Hinton Broth (CAMHB, BBL, # BB215069). Before use, cultures were adjusted to an optical density value of 1.6-2 on a Perkin-Elmer Lambda EZ150 Spectrophotometer (Wellesley, Mass.) set at a wavelength of 600 nm. Random cultures were plated for validation of actual colony counts. The adjusted cultures were diluted 400-fold (0.25 mL inoculum+100 mL GCB) into gonococcal broth producing a starting inoculum of approximately 5×10^5 cfu/mL. These cultures were inoculated into test plates (100 uL/well) using a Biomek® FX workstation (Beckman Coulter Inc., Fullerton, Calif.). The inoculated plates were placed in stacks of no more than 4 and covered with an empty plate. Plates were incubated for 20-24 hours at 35 C in a humidified CO2 incubator.
Test Compound (“Drug”) Preparation
Drug stock solutions (2 mg/mL in DMSO) were prepared on the day of testing. Drugs were weight corrected for assay content where necessary.
Drug Dilution Tray Preparation
Microbroth dilution stock plates were prepared in two dilution series, 64-0.06 ug drug/mL and 1-0.001 ug drug/mL. For the high concentration series, 200 uL of stock solution (2 mg/mL) was added to duplicate rows of a 96-well plate. This was used as the first well in the dilution series. Serial two-fold decremental dilutions were made using a BioMek FX robot (Beckman Coulter Inc., Fullerton, Calif.) with 10 of the remaining 11 wells, each of which contained 100 uL of the appropriate solvent/diluent. Row 12 contained solvent/diluent only and served as the control. For tube one of the low concentration series, 200 uL of a 31.25 ug/mL stock was added to duplicate rows of a 96-well plate. Serial two-fold dilutions were made as described above.
Daughter plates were spotted (3.2 uL/well) from the stock plates listed above using the BioMek FX robot and were inoculated with organism (100 uL/well) as described previously.
After incubation, the degree of growth in each well was read visually with the aid of a Test Reading Mirror (Dynatech Lab 220-16, Dynex Technologies, Chantilly, Va.). 96-well test plates are read in a darkened room with a single light shining from above. The MIC is the lowest concentration of drug that prevents macroscopically visible growth under the conditions of the test. […] If MIC values in duplicate tests differ by 1 well (two-fold), the […] value is reported. If duplicate tests vary by 2 dilutions (four-fold), the middle value is reported.

Where [1] appears, read: Neisseria gonorrhoeae, read-out: MIC.

Converted amounts (≈) assume the structure as drawn. Where two headings read alike, the source gives them in different places.

`CCNC(=O)Nc1nc2cc(-c3ccccc3OC)cc(C(=O)NCC)n2n1` [Example 54, 2-(3-Ethyl-ureido)-7-(2-methoxy-phenyl)-[1,2,4]triazolo[1,5-a]pyridine-5-carboxylic acid ethylamide]: the MIC under setting [1] was greater than 64 µg/mL.

Take `CCNC(=O)Nc1nc2cc(-c3cccnc3)cc(C(=O)NCC(C)C)n2n1` [Example 40, 2-(3-Ethyl-ureido)-7-pyridin-3-yl-[1,2,4]triazolo[1,5-a]pyridine-5-carboxylic acid isobutyl-amide]: under setting [1], the MIC amounted to 2 µg/mL (≈ 5.24 µM).

Molecule `CCNC(=O)Nc1nc2cc(-c3cccnc3)cc(-c3cnc(CC)s3)n2n1` [Example 124, 1-ethyl-3-[5-(2-ethyl-thiazol-5-yl)-7-pyridin-3-yl-[1,2,4]triazolo[1,5-a]pyridin-2-yl]-urea] yielded a minimal inhibitory concentration (MIC) of 64.0 µg/mL (≈ 163 µM).

For `CCNC(=O)Nc1nc2cc(-c3cccnc3)cc(-c3cnc(C)o3)n2n1` [Example 129, N-Ethyl-N′-[5-(2-methyl-1,3-oxazol-5-yl)-7-pyridin-3-yl[1,2,4]triazolo[1,5-a]pyridin-2-yl]urea], the MIC under setting [1] came to 1 µg/mL (≈ 2.75 µM).

Take `CCNC(=O)Nc1nc2cc(-c3cccnc3)cc(C(=O)NC(C)C)n2n1` [Example 12, 2-(3-Ethyl-ureido)-7-pyridin-3-yl-[1,2,4]triazolo[1,5-a]pyridine-5-carboxylic acid isopropylamide]: the MIC under setting [1] was 2 µg/mL (≈ 5.44 µM).

As for `CCNC(=O)Nc1nc2cc(-c3cc(F)ccc3F)cc(C(=O)NCC)n2n1` [Example 66, 7-(2,5-Difluoro-phenyl)-2-(3-ethyl-ureido)-[1,2,4]triazolo[1,5-a]pyridine-5-carboxylic acid ethylamide], the MIC under setting [1] was 4 µg/mL (≈ 10.3 µM).

In the case of `CCNC(=O)Nc1nc2cc(-c3cccnc3)cc(C(=O)NC3CC3)n2n1` [Example 13, 2-(3-Ethyl-ureido)-7-pyridin-3-yl-[1,2,4]triazolo[1,5-a]pyridine-5-carboxylic acid cyclopropylamide], the MIC under setting [1] was found to be 4 µg/mL (≈ 10.9 µM).

`CCNC(=O)Nc1nc2cc(-c3cccnc3)cc(C(C)O)n2n1` (centres unmarked) [Example 25, N-Ethyl-N′-[5-(1-hydroxyethyl)-7-pyridin-3-yl[1,2,4]triazolo[1,5-a]pyridin-2-yl]urea]: the MIC under setting [1] is 1 µg/mL (≈ 3.06 µM).

In the case of `CCNC(=O)Nc1nc2cc(-c3cccnc3)cc(-c3cnco3)n2n1` [Example 22, N-Ethyl-N′-[5-(1,3-oxazol-5-yl)-7-pyridin-3-yl[1,2,4]triazolo[1,5-a]pyridin-2-yl]urea], the MIC under setting [1] worked out at 0.5 µg/mL (≈ 1.43 µM).

With `CCNC(=O)Nc1nc2cc(-c3cccnc3)cc(C(=O)NCCC3CCCN3C)n2n1` (centres unmarked) [Example 46, 2-(3-Ethyl-ureido)-7-pyridin-3-yl-[1,2,4]triazolo[1,5-a]pyridine-5-carboxylic acid [2-(1-methyl-pyrrolidin-2-yl)-ethyl]-amide], the MIC under setting [1] was 1 µg/mL (≈ 2.29 µM).

On to `CCNC(=O)Nc1nc2cc(-c3ccccc3C)cc(C(=O)NCC)n2n1` [Example 73, 2-(3-Ethyl-ureido)-7-o-tolyl-[1,2,4]triazolo[1,5-a]pyridine-5-carboxylic acid ethylamide], for which the MIC under setting [1] was 16 µg/mL (≈ 43.7 µM).

With `CCNC(=O)Nc1nc2cc(-c3ccc(F)nc3)cc(C(=O)NCC)n2n1` [Example 34, 2-(3-Ethyl-ureido)-7-(6-fluoro-pyridin-3-yl)-[1,2,4]triazolo[1,5-a]pyridine-5-carboxylic acid ethylamide], under setting [1], the MIC turned out to be 1 µg/mL (≈ 2.69 µM).

For `CCNC(=O)Nc1nc2cc(-c3cccnc3)cc(-c3cnc(C)s3)n2n1` [Example 132, 1-Ethyl-3-[5-(2-methyl-thiazol-5-yl)-7-pyridin-3-yl-[1,2,4]triazolo[1,5-a]pyridin-2-yl]-urea], under setting [1], the MIC is 2 µg/mL (≈ 5.27 µM).

Take `CCNC(=O)Nc1nc2cc(-c3ccc(OC)nc3)cc(C(=O)NCC)n2n1` [Example 96, 2-(3-Ethyl-ureido)-7-(6-methoxy-pyridin-3-yl)-[1,2,4]triazolo[1,5-a]pyridine-5-carboxylic acidethylamide]: the MIC under setting [1] came to 2 µg/mL (≈ 5.22 µM).

As usually defined, the MIC is the smallest concentration in the dilution series that meets the test's criterion for growth inhibition.

For the origin of these results see patent US7524860B2, “Antibacterial agents” (Pfizer Inc., priority 2004, dated 2009).
